# Source: patent EP1206258B1, “COMPOSITIONS CONTAINING ESTERS FOR TREATING PARASITIC INFESTATIONS OF ORGANISMS” (priority 1999, dated 2001)
# Key:
# Rhizopus arrhizus = test: growth inhibition test on SAB agar, R. arrhizus; assay type: cell-based
# Method: The antifungal activity of ethyl trans-cinnamate against a number of different fungi was investigated by means of in a simple growth inhibition test.
# The following quantities of Ethyl trans-Cinnamate were added to Sabourand Dextrose agar (SAB); 50 ml L^-1, 4ml L^-1, 2ml L^-1, 1ml L^-1, 400 µl L^-1, 200 µl L^-1 and 40 µl L^-1. […] These were then autoclaved and poured into standard Petri dishes. […] Duplicate plates of each concentration, plus control plates containing only SAB Agar, where then separately inoculated with, four different species of fungi, these were Aspergillus nidulans, Penicillium digitatum, Rhizopus arrhizus and Fusarium culmorum. Inoculation was carried out using a single stab at the centre of each Petri dish. The plates were then incubated at 30°C for 6 days and daily measurements of mycobial growth where taken every 24 hours.
# Psoroptes cuniculi = test: in vitro immersion assay on the mite Psoroptes cuniculi; conditions: for mites had died: exposed for 24 hours, control 8%
# Method: A series of in vitro assays were conducted to examine the effects of the compound trans-cinnamic acid ethyl ester on the mite Psoroptes cuniculi. This mite infests rabbits and is very similar to the mite Psoroptes ovis which infests sheep and causes sheep scab.
# The mites were taken from the ears of infested rabbits and exposed for 24 hours to the active compound at concentrations of 10, 1 or 0.1 % (V/V). The concentrations were obtained by serial dilution of the compound in 0.05% sodium dodecyl sulphate (SDS).
# This is illustrated in Figure 2 of the accompanying drawings.
# The LC95 was 6.29% (95% confidence interval 4.98-8.88).
# Line (1) represents adult males, line (2) adult females and (3) female nymphs.
# Thus, trans-cinnamic acid ethyl ester gives greater than 50% levels of mortality within 24 hours, for all life cycle stages of P. cuniculi after short contact times (1 min) at concentrations of 2.2% (V/V). At one minute contact time, concentrations of greater than 6% (V/V) are required to bring about mortality of greater than 95%. Recent theoretical analysis using simulation modelling (Wall, unpublished) has shown that sustained mortality of greater than 50% per day is required to suppress a growing population of P. ovis.
compound,measurement,setting,value
CCOC(=O)/C=C/c1ccccc1 [trans-cinnamic acid ethyl ester],Level of Radial Growth (mm) of R. arrhizus,"Rhizopus arrhizus; 1ml L^-1, Day 1",8.5 mm
same,Level of Radial Growth (mm) of R. arrhizus,"Rhizopus arrhizus; 1ml L^-1, Day 2",45.0 mm
same,Level of Radial Growth (mm) of R. arrhizus,"Rhizopus arrhizus; 1ml L^-1, Day 3",45.0 mm
same,Level of Radial Growth (mm) of R. arrhizus,"Rhizopus arrhizus; 1ml L^-1, Day 4",45.0 mm
same,Level of Radial Growth (mm) of R. arrhizus,"Rhizopus arrhizus; 1ml L^-1, Day 5",45.0 mm
same,Level of Radial Growth (mm) of R. arrhizus,"Rhizopus arrhizus; 1ml L^-1, Day 6",45.0 mm
same,Level of Radial Growth (mm) of R. arrhizus,"Rhizopus arrhizus; 2ml L^-1, Day 1",1. mm
same,Level of Radial Growth (mm) of R. arrhizus,"Rhizopus arrhizus; 2ml L^-1, Day 2",45.0 mm
same,Level of Radial Growth (mm) of R. arrhizus,"Rhizopus arrhizus; 2ml L^-1, Day 3",45.0 mm
same,Level of Radial Growth (mm) of R. arrhizus,"Rhizopus arrhizus; 2ml L^-1, Day 4",45.0 mm
same,Level of Radial Growth (mm) of R. arrhizus,"Rhizopus arrhizus; 2ml L^-1, Day 5",45.0 mm
same,Level of Radial Growth (mm) of R. arrhizus,"Rhizopus arrhizus; 2ml L^-1, Day 6",45.0 mm
same,Level of Radial Growth (mm) of R. arrhizus,"Rhizopus arrhizus; 4ml L^-1, Day 1",0 mm
same,Level of Radial Growth (mm) of R. arrhizus,"Rhizopus arrhizus; 4ml L^-1, Day 2",23.5 mm
same,Level of Radial Growth (mm) of R. arrhizus,"Rhizopus arrhizus; 4ml L^-1, Day 3",45.0 mm
same,Level of Radial Growth (mm) of R. arrhizus,"Rhizopus arrhizus; 4ml L^-1, Day 4",45.0 mm
same,Level of Radial Growth (mm) of R. arrhizus,"Rhizopus arrhizus; 4ml L^-1, Day 5",45.0 mm
same,Level of Radial Growth (mm) of R. arrhizus,"Rhizopus arrhizus; 4ml L^-1, Day 6",45.0 mm
same,Level of Radial Growth (mm) of R. arrhizus,"Rhizopus arrhizus; 40µl L^-1, Day 1",26.0 mm
same,Level of Radial Growth (mm) of R. arrhizus,"Rhizopus arrhizus; 40µl L^-1, Day 2",45.0 mm
same,Level of Radial Growth (mm) of R. arrhizus,"Rhizopus arrhizus; 40µl L^-1, Day 3",45.0 mm
same,Level of Radial Growth (mm) of R. arrhizus,"Rhizopus arrhizus; 40µl L^-1, Day 4",45.0 mm
same,Level of Radial Growth (mm) of R. arrhizus,"Rhizopus arrhizus; 40µl L^-1, Day 5",45.0 mm
same,Level of Radial Growth (mm) of R. arrhizus,"Rhizopus arrhizus; 40µl L^-1, Day 6",45.0 mm
same,duration of complete inhibition of growth,"Rhizopus arrhizus; 50ml L-^1 and higher doses, further experiments, data not shown",at least 8 days
same,inhibition of growth,Rhizopus arrhizus; 50ml L-^1 level,complete inhibition of growth
same,Level of Radial Growth (mm) of R. arrhizus,"Rhizopus arrhizus; 50 ml L^-1, Day 1",0 mm
same,Level of Radial Growth (mm) of R. arrhizus,"Rhizopus arrhizus; 50 ml L^-1, Day 2",0 mm
same,Level of Radial Growth (mm) of R. arrhizus,"Rhizopus arrhizus; 50 ml L^-1, Day 3",0 mm
same,Level of Radial Growth (mm) of R. arrhizus,"Rhizopus arrhizus; 50 ml L^-1, Day 4",0 mm
same,Level of Radial Growth (mm) of R. arrhizus,"Rhizopus arrhizus; 50 ml L^-1, Day 5",0 mm
same,Level of Radial Growth (mm) of R. arrhizus,"Rhizopus arrhizus; 50 ml L^-1, Day 6",0 mm
same,Level of Radial Growth (mm) of R. arrhizus,"Rhizopus arrhizus; 200µl L^-1, Day 1",18.0 mm
same,Level of Radial Growth (mm) of R. arrhizus,"Rhizopus arrhizus; 200µl L^-1, Day 2",45.0 mm
same,Level of Radial Growth (mm) of R. arrhizus,"Rhizopus arrhizus; 200µl L^-1, Day 3",45.0 mm
same,Level of Radial Growth (mm) of R. arrhizus,"Rhizopus arrhizus; 200µl L^-1, Day 4",45.0 mm
same,Level of Radial Growth (mm) of R. arrhizus,"Rhizopus arrhizus; 200µl L^-1, Day 5",45.0 mm
same,Level of Radial Growth (mm) of R. arrhizus,"Rhizopus arrhizus; 200µl L^-1, Day 6",45.0 mm
same,Level of Radial Growth (mm) of R. arrhizus,"Rhizopus arrhizus; 400µl L^-1, Day 1",14.5 mm
same,Level of Radial Growth (mm) of R. arrhizus,"Rhizopus arrhizus; 400µl L^-1, Day 2",45.0 mm
same,Level of Radial Growth (mm) of R. arrhizus,"Rhizopus arrhizus; 400µl L^-1, Day 3",45.0 mm
same,Level of Radial Growth (mm) of R. arrhizus,"Rhizopus arrhizus; 400µl L^-1, Day 4",45.0 mm
same,Level of Radial Growth (mm) of R. arrhizus,"Rhizopus arrhizus; 400µl L^-1, Day 5",45.0 mm
same,Level of Radial Growth (mm) of R. arrhizus,"Rhizopus arrhizus; 400µl L^-1, Day 6",45.0 mm
same,LT50,"Psoroptes cuniculi; 0.1% (V/V), same as control (0.05% SDS only)",approximately 2.5 days
same,LD 25 Concentration (% V/V),Psoroptes cuniculi; 24 hours after exposure,0.53 % V/V
same,LD 50 Concentration (% V/V) (LC50),Psoroptes cuniculi; 24 hours after exposure,2.21 % V/V
same,LD 75 Concentration (% V/V),Psoroptes cuniculi; 24 hours after exposure,3.88 % V/V
same,LD 95 Concentration (% V/V) (LC95),Psoroptes cuniculi; 24 hours after exposure,6.29 % V/V
same,50% mortality (LT50),Psoroptes cuniculi; concentration 1%,1 days
same,50% mortality (LT50),Psoroptes cuniculi; concentration 10%,0.5 days
same,mites had died,Psoroptes cuniculi; 0.1 % (V/V) in 0.05% SDS,20%
same,mites had died,Psoroptes cuniculi; 1 % (V/V) in 0.05% SDS,74%
same,mites had died,Psoroptes cuniculi; 10 % (V/V) in 0.05% SDS,100%
same,concentrations required to bring about mortality of greater than 95%,Psoroptes cuniculi; one minute contact time,greater than 6 % (V/V)
same,levels of mortality,"Psoroptes cuniculi; within 24 hours, all life cycle stages, contact time 1 min, 2.2% (V/V)",greater than 50%
